Test results published in US12128013B2, “Toxic aldehyde related diseases and treatment” (Aldeyra Therapeutics, Inc., priority 2013, dated 2024).
“Also recorded” adds a separate entry of the source.

Tests used:
[1] = Reaction with MDA salt in glyceryl trioleate / Captisol-PBS / linoleic acid, monitored by LC/MS; conditions: 0.064 mmol compound and MDA, ambient temperature
Experimental: To five separate reaction vials was added Compounds 1, 2, 12, 14, and 16, respectively (0.064 mmol), MDA salt (22.7% MDA, 0.064 mmol), and glyceryl trioleate (600 mg). To the mixture was added 20 wt % Capitsol in aqueous PBS (˜2.5 ml), followed by linoleic acid (600 mg). The reaction mixture was stirred vigorously at ambient temperature and monitored by LC/MS. […] Other MDA adducts were also formed at different time points of the reactions.

contact dermatitis = assay: Contact dermatitis, phorbol myristate acetate (PMA) model, pinna thickness; type: in vivo, mice; conditions: single dose, FIG. 5A
Experimental: To determine the efficacy of Compound 9 in treating contact dermatitis, phorbol myristate acetate (“PMA”) was applied topically (2.5 μg in 20 μL) to both the anterior and posterior portions of the right pinna of mice (N=10 per group). As a control, the left pinna received 20 μL of ethanol (PMA excipient) to both the anterior and posterior portions. Six hours after the PMA application, both the right and left pinna thickness was determined. Measurements were determined at least twice from the same region of both ears, with care taken not to include hair or folded pinna.

circulating cytokines = assay: LPS exposure in mice, ELISA of circulating cytokines; type: in vivo, Male C57BI/6 mice; conditions: single dose 30 minutes before LPS (20 mg/kg), blood two hours after LPS
Experimental: Male C57BI/6 mice were dosed with Compound 9 30 minutes before they were exposed to LPS (20 mg/kg). Two hours after the LPS exposure, blood was collected from the mice and an ELISA was conducted to determine the amount of circulating cytokines.

allergic dermatitis = assay: Allergic dermatitis, oxazolone (OXL) model, pinna thickness; type: in vivo, mice; conditions: single dose 100 mg/kg intraperitoneally, FIG. 5B
Experimental: To measure the efficacy of Compound 9 in treating allergic dermatitis, oxazolone (“OXL”) was applied (1.5%, 100 μL in acetone) to the shaved abdomens of mice. Seven days later, the thickness of the pinna of the OXL treated mice was determined. Then Compound 9 (100 mg/kg) or the vehicle (i.e., Captisol) was administered intraperitoneally to mice followed by topical application of OXL (1%, 20 μL) 30 min later to both the anterior and posterior portions of the right pinna. As a control, the left pinna received 20 μL of acetone (OXL excipient) to both the anterior and posterior portions. The thickness of the pinna of both ears was measured again 24 hours later. N=10 per group.

[2] = Aldehyde trapping (FIG. 1), HNE
[3] = test system: radiation induced fibrosis; assay: Radiation induced fibrosis after 40 Gy irradiation; type: in vivo; conditions: hamsters subject to 40 Gy irradiation; FIG. 7
[4] = Aldehyde trapping (FIG. 1), MDA
[5] = test system: Primary rat cortical cultures; assay: LDH assay in primary rat cortical cultures; type: cell-based; conditions: 24 or 48 hours, various concentrations; FIG. 2
Experimental: Primary rat cortical cultures were placed in an incubator for 24 or 48 hours and treated with various concentrations of Compound 9. Then 20 μL of the culture media was removed for an LDH assay as described in Bergmeyer et al., Methods of Enzymatic Analysis, 3rd ed. (1983).

[6] = in the presence of peptides and phospholipids

Row | SMILES | form of the MDA adducts [1] | reaction with MDA / trapping of MDA (formation of MDA adducts) [1] | other results
1 | CC(C)(O)c1c(N)cc2onc(C3CC3)c2c1Cl [Compound 14, 2-(6-amino-4-chloro-3-cyclopropylbenzisoxazol-5-yl)propan-2-ol] | a majority of the adducts were bis-oxaminal | quickly react with MDA to form MDA adducts; also recorded: reacts and traps MDA | 
2 | Cc1ccc(-c2nc3cc(N)c(C(C)(C)O)c(Cl)c3o2)cc1 [Compound 12, 2-(5-amino-7-chloro-2-p-tolylbenzoxazol-6-yl)propan-2-ol] | a majority of the adducts were bis-oxaminal | quickly react with MDA to form MDA adducts; also recorded: reacts and traps MDA | 
3 | CC(C)(O)c1c(N)cnc2ccc(Cl)cc12 [Compound 2, 2-(3-amino-6-chloroquinolin-4-yl)propan-2-ol] |  | quickly react with MDA to form MDA adducts; also recorded: reacts and traps MDA | 
4 | CC(C)(O)c1nc2ccc(Cl)cc2cc1N [Compound 9] | in both the imine form and the oxaminal form | reacted with MDA and formed MDA adducts; also recorded: reacts and traps MDA | efficacy against contact dermatitis (contact dermatitis): effective; other chemokines, such as eotaxin, IL-12, IP-10, LIF, MCP-1, MIG, MIP, and RANTES (circulating cytokines): decreased; anti-inflammatory cytokines, such as IL-10 (circulating cytokines; FIG. 4): elevated; proinflammatory cytokines, such as IL-5 and IL-1β, IL-17, and TNF (circulating cytokines; FIGS. 3 and 4): broad downregulation; also recorded: reduction; efficacy against allergic dermatitis (allergic dermatitis): effective; reaction with and trapping of HNE ([2]; FIG. 1): rapidly reacts with and traps; also recorded: decrease aldehyde (e.g., MDA and HNE) concentration in a time-dependent manner; trapping of HNE [2, 6]: rapidly traps MDA and HNE; radiation induced fibrosis [3]: diminishes radiation induced fibrosis; reaction with and trapping of MDA ([4]; FIG. 1): rapidly reacts with and traps; also recorded: decrease aldehyde (e.g., MDA and HNE) concentration in a time-dependent manner; trapping of MDA [4, 6]: rapidly traps MDA and HNE; aldehyde-mediated cell death in neurons (LDH assay) [5]: prevented aldehyde-mediated cell death in neurons
5 | CC(C)(O)c1c(N)cc(Cl)c2c(C3CC3)noc12 [Compound 16, 2-(6-amino-4-chloro-3-cyclopropylbenzisoxazol-7-yl)propan-2-ol] | a majority of the adducts were bis-oxaminal | quickly react with MDA to form MDA adducts; also recorded: reacts and traps MDA | 
6 | CC(C)(O)c1c(N)cnc2ccc(Cl)c(F)c12 [Compound 1, 2-(3-amino-6-chloro-5-fluoroquinolin-4-yl)propan-2-ol] | a majority of the adducts were bis-oxaminal | quickly react with MDA to form MDA adducts; also recorded: reacts and traps MDA | 
